Measured values published in patent publication US5283246A, “Trimetazidine compounds” (Adir et Compagnie, priority 1991, dated 1994).

Experiments:
cardiac cells = assay: Oxidative necrosis of cardiac cells induced by hypoxanthine/xanthine-oxidase (XO + HX); format: cell-based, rat (newborn); conditions: Rattus norvegicus, 4 h; for activity at 10 µM: 10^-5 M, read-out: necrosis index of cardiac cells, XO + HX, compound 10^-5 M; for activity at 10 µM / activity at 1 µM / activity at 0.1 µM: XO + HX, control XO + HX = 100.0; for activity at 1 µM: 10^-6 M, read-out: necrosis index of cardiac cells, XO + HX, compound 10^-6 M; for activity at 0.1 µM: 10^-7 M, read-out: necrosis index of cardiac cells, XO + HX, compound 10^-7 M; for minimal effective concentration: XO + HX induced oxidative necrosis, read-out: concentration at which compounds prove to be protective against necrosis
Protocol: The cardiac cells of newborn rats are used between the 5th and 6th days after placing in culture. Oxidative necrosis is induced by the free radical-producing enzymatic system hypoxanthine (HX, 1 -mm) and xanthineoxidase (XO, 10 mU/ml). The necrosis is evaluated 4 hours after the addition of XO/HX by measuring by spectrophotometry the cytosolic α-hydroxybutyrate dehydrogenase (a-HBDH) activity liberated in the supernatant. The cells are treated with the test compounds 16 hours and 1 hour before the beginning of the experiment after renewing the medium. At the beginning of the experiment, the treatment is carried out again one last time.
Table 3 lists the necrosis indices of cardiac cells induced by the hypoxanthine/xanthine-oxidase system alone or in the presence of increasing concentrations of the compounds of the invention.

isolated hearts of rats = assay: Hypoxia reoxygenation on the isolated heart of a rat; set-up: species or system Wistar rat; conditions: for functional recovery of the hearts during reoxygenation / reduction of the developing contracture at the end of 30 minutes reoxygenation: Example 1 at 3×10^-7 M, 10 at 10^-7 M, 13 at 7×10^-7 M; for functional recovery of the hearts during reoxygenation: 40% in the control experiments; for reduction of the developing contracture at the end of 30 minutes reoxygenation: vs control; for Contracture, hypoxia 10 min / Contracture, hypoxia 30 min / Contracture, hypoxia 60 min / Contracture, reoxygenation 15 min / Contracture, reoxygenation 30 min: Example 1 at 3 × 10^-7 M, Example 10 at 10^-7 M, Example 13 at 7 × 10^-7 M; for Contracture, hypoxia 10 min: control 23.7 ± 6.8; for Contracture, hypoxia 30 min: control 33.7 ± 8.9; for Contracture, hypoxia 60 min: control 32.3 ± 7.4; for Contracture, reoxygenation 15 min: control 20.6 ± 7.8; for Contracture, reoxygenation 30 min: control 12.3 ± 6.1
Protocol: The hearts of male Wistar rats (325-375 g--Charles River breed) anaesthetized by the intraperitoneal route with sodium pentobarbital (30 mg/kg) are removed after the injection of heparin i.v. (1 ml/kg) and rapidly perfused by the Langendorff technique at a constant pressure of 76 mmhg and stimulated electrically at 5 Hz. The isovolumetric contractions are recorded by way of a small polyethylene balloon connected to a pressure sensor (P23-Gould) introduced into the left ventricle and inflated so as to obtain a diastolic pressure of approximately 10 mmhg. The physiological solution used, maintained at 37° C., has the following composition (mM): NaCl 118; KCl 4.7; KH2 PO4 1.2; MgCl2 1.2; CaCl2 1.3; NaHCO3 25; glucose 8, pH 7.4/95% O2 +5% CO2.
After a period of stabilization of from 15 to 30 minutes, the heart is subjected to hypoxia for 60 minutes (effected with 95% N2 and 5% CO2; PO2 <40 mmHg), followed by reoxygenation for 30 minutes; the compound is added to the incubation medium 15 minutes before and during the period of hypoxia.

human LDLs = assay: Modification of human LDLs by copper sulphate (lipid peroxidation, MDA production); format: biochemical; conditions: copper sulphate 5×10^-6 M, 24 hours; read-out: IC50, inhibition of copper-induced modification (MDA production) of human LDLs
Protocol: Human LDLs are incubated for 24 hours in the presence of copper sulphate (5×10^-6 M) and in the absence or presence of the compounds tested (10^-7 M to 10^-4 M). After incubation, the peroxidation of the LDLs is evaluated by electrophoresis on agar gel and by the formation of one of the products of lipid peroxidation malonic dialdehyde (MDA), (Parthasarathy S., Young S. G., Witztum J. L., Pittman R. C. and Steinberg, D.; J. Clin. invest. 77; 641-644, 1986).
The activity of the tested compounds is evaluated by calculating those concentrations (IC50) that reduce the production of MDA by 50% compared with control experiments in the absence of the tested compound.

rat aorta = assay: Study on isolated vessels: vascular relaxing effect on a rat aorta contracted by potassium (80 mM); set-up: species or system Wistar rat; conditions: rat aorta rings without endothelium contracted by potassium (80 mM)
Protocol: The thoracic aorta of Wistar rats (325-375 g) that have been anaesthetized by the intraperitoneal route with sodium pentobarbital (30 mg/kg) is removed and dissected into rings 3 mm in length; the endothelium is removed by gentle abrasion using a piece of wood. Each ring is connected to a Statham pressure sensor (UC2-Gould). The initial pressure applied is 2.5 g. The physiological solution used, maintained at 37° C., has the following composition (mM): NaCl 112; KCl 5; KH2 PO4 1; MgSO4 1.2; CaCl2 2.5; NaHCO3 25; glucose 11.; EDTA 0.026. After a stabilization period of 90 minutes, the aorta rings are subjected to a hyperpotassic medium (80 MM KCl and 37 mM NaCl). When the contraction is stable, cumulative concentrations of compound are added to the medium every 15 minutes. The relaxation values obtained enable calculation of the IC50.

Row | Compound | IC50 (human LDLs) [µM] | IC50 (rat aorta) [µM] | activity at 10 µM (cardiac cells) [%] | activity at 1 µM (cardiac cells) [%] | activity at 0.1 µM (cardiac cells) [%] | minimal effective concentration (cardiac cells) [µM] | functional recovery of the hearts during reoxygenation (isolated hearts of rats) | reduction of the developing contracture at the end of 30 minutes reoxygenation (isolated hearts of rats) | Contracture, hypoxia 10 min (isolated hearts of rats) [mm Hg] | Contracture, hypoxia 30 min (isolated hearts of rats) [mm Hg] | Contracture, hypoxia 60 min (isolated hearts of rats) [mm Hg] | Contracture, reoxygenation 15 min (isolated hearts of rats) [mm Hg] | Contracture, reoxygenation 30 min (isolated hearts of rats) [mm Hg]
1 | COc1ccc(CN2CCN(CCC(C)(C)Sc3cc(C(C)(C)C)c(O)c(C(C)(C)C)c3)CC2)c(OC)c1OC [Example 2, 4-(2,3,4-trimethoxybenzyl)-1-[3-(4-hydroxy-3,5-di-tert.-butylphenylthio)-3,3-dimethylpropyl]piperazine] | 3 | – | – | – | – | – | – | – | – | – | – | – | –
2 | COc1ccc(CN2CCN(CCCc3cc(C(C)(C)C)c(O)c(C(C)(C)C)c3)CC2)c(OC)c1OC [Example 4, 4-(2,3,4-trimethoxybenzyl)-l-[3-(4-hydroxy-3,5-di-tert.-butylphenyl)propyl]piperazine] | 2 | – | 10.2 ± 3.1 | 22.3 ± 6.5 | 103 ± 12 | – | – | – | – | – | – | – | –
3 | COc1ccc(CN2CCN(CC(O)COc3cc(C(C)(C)C)c(O)c(C(C)(C)C)c3)CC2)c(OC)c1OC (stereo not drawn) [Example 5, 4-(2,3,4-trimethoxybenzyl)-l-[3-(4-hydroxy-3,5-di-tert.-butylphenoxy)-2-hydroxypropyl]piperazine] | 0.9 | – | – | – | – | – | – | – | – | – | – | – | –
4 | COc1ccc(CN2CCN(CCCCCOc3cc(C(C)(C)C)c(O)c(C(C)(C)C)c3)CC2)c(OC)c1OC [Example 8, 4-(2,3,4-trimethoxybenzyl)-l-[5-(4-hydroxy-3,5-di-tert.-butylphenoxy)pentyl]piperazine] | 1 | – | 27.2 ± 2 | 21.6 ± 4.2 | 91.4 ± 3.1 | – | – | – | – | – | – | – | –
5 | COc1ccc(CN2CCN(CC(O)COc3cc(C)c(O)c(C)c3C)CC2)c(OC)c1OC (stereo not drawn) [Example 11, 4-(2,3,4-trimethoxybenzyl)-l-[3-(4-hydroxy-2,3,5-trimethylphenoxy)-2-hydroxypropyl]piperazine] | 0.6 | – | 18 ± 2.9 | 70.9 ± 8.3 | 114 ± 5.2 | – | – | – | – | – | – | – | –
6 | COc1ccc(CN2CCN(CC(C)(C)CSc3cc(C(C)(C)C)c(O)c(C(C)(C)C)c3)CC2)c(OC)c1OC [Example 12, 4-(2,3,4-trimethoxybenzyl)-l-[3-(4-hydroxy-3,5-di-tert.-butylphenylthio)-2,2-dimethylpropyl]piperazine] | 0.8 | – | – | – | – | – | – | – | – | – | – | – | –

More lines, main results first:

Row | IC50 (human LDLs) [µM] | IC50 (rat aorta) [µM] | Compound | activity at 10 µM (cardiac cells) [%] | activity at 1 µM (cardiac cells) [%] | activity at 0.1 µM (cardiac cells) [%] | minimal effective concentration (cardiac cells) [µM] | functional recovery of the hearts during reoxygenation (isolated hearts of rats) | reduction of the developing contracture at the end of 30 minutes reoxygenation (isolated hearts of rats) | Contracture, hypoxia 10 min (isolated hearts of rats) [mm Hg] | Contracture, hypoxia 30 min (isolated hearts of rats) [mm Hg] | Contracture, hypoxia 60 min (isolated hearts of rats) [mm Hg] | Contracture, reoxygenation 15 min (isolated hearts of rats) [mm Hg] | Contracture, reoxygenation 30 min (isolated hearts of rats) [mm Hg]
7 | 0.09 | 5 | COc1ccc(CN2CCN(CCCOc3cc(C)c(O)c(C)c3C)CC2)c(OC)c1OC [Example 1, 4-(2,3,4-trimethoxybenzyl)-1-[3-(4-hydroxy-2,3,5-trimethylphenoxy)propyl]piperazine] | 13.9 ± 5.3 | 55.4 ± 6.4 | 70.4 ± 2.5 | ≥ 0.1 | more than 70% | more than 70% | 21.0 ± 5.8 | 22.5 ± 2.5 | 21.0 ± 3.9 | 12.5 ± 5.1 | 2.5 ± 2.5
8 | 0.5 | – | COc1ccc(CN2CCN(CCCOc3cc(C(C)(C)C)c(O)c(C(C)(C)C)c3)CC2)c(OC)c1OC [Example 3, 4-(2,3,4-trimethoxybenzyl)-l-[3-(4-hydroxy-3,5-di-tert.-butylphenoxy)propyl]piperazine] | 37.6 ± 2.7 | 16.9 ± 1.1 | 72.6 ± 5.7 | ≥ 0.1 | – | – | – | – | – | – | –
9 | 0.3 | 2.7 | COc1ccc(CN2CCN(CC(O)CSc3cc(C(C)(C)C)c(O)c(C(C)(C)C)c3)CC2)c(OC)c1OC (centres unmarked) [Example 6, 4-(2,3,4-trimethoxybenzyl)-I-[3-(4-hydroxy-3,5-di-tert.-butylphenylthio)-2-hydroxypropyl]piperazine] | 8.3 ± 1.4 | 7.7 ± 0.1 | 99.5 ± 7.5 | – | – | – | – | – | – | – | –
10 | 0.6 | – | COc1ccc(CN2CCN(CCCSc3cc(C(C)(C)C)c(O)c(C(C)(C)C)c3)CC2)c(OC)c1OC [Example 7, 4-(2,3,4-trimethoxybenzyl)-I-[3-(4-hydroxy-3,5-di-tert.-butylphenylthio)propyl]piperazine] | 27.9 ± 3.4 | 19.3 ± 0.9 | 85.9 ± 1.7 | – | – | – | – | – | – | – | –
11 | 0.08 | – | COc1ccc(CN2CCN(CCCCCSc3cc(C(C)(C)C)c(O)c(C(C)(C)C)c3)CC2)c(OC)c1OC [Example 9, 4-(2,3,4-trimethoxybenzyl)-l-[5-(4-hydroxy-3,5-di-tert.-butylphenylthio)pentyl]piperazine] | 33.3 ± 6.6 | 15.2 ± 2 | 53 ± 5.5 | ≥ 0.1 | – | – | – | – | – | – | –
12 | 0.07 | 4.3 | COc1ccc(CN2CCN(CC(O)CSc3cc(C)c(O)c(C)c3C)CC2)c(OC)c1OC (stereo not drawn) [Example 13, 4-(2,3,4-trimethoxybenzyl)-l-[3-(4-hydroxy-2,3,5-trimethylphenylthio)-2-hydroxypropyl)piperazine] | 15.1 ± 0.6 | 64.7 ± 0.4 | 100 ± 4.8 | – | more than 70% | more than 70% | 11.0 ± 4.4 | 15.0 ± 6.1 | 13.5 ± 6.3 | 6.0 ± 6.0 | 3.5 ± 3.5
